Data from patent EP0345629A2, “Condensed diazepinones, process for their preparation and medicaments containing them” (Dr. Karl Thomae GmbH, priority 1988, dated 1989).
Where two headings read alike, the source gives them in different places.

Tests used:
[1] = system: Acetylcholinwirkung auf Blase; test: Inhibition of the acetylcholine effect on bladder contraction in the anaesthetised guinea pig; format: in vivo, Meerschweinchen; settings: for ED50: Cavia porcellus, 5 min, anaesthetised guinea pig, 10 µg/kg Acetylcholin 5 min after test substance, bladder contraction, read-out: -log ED50 Blase (converted)
Description: (§1) 3. Hemmung der Acetylcholinwirkung auf Blase, Bronchien und Herzfrequenz des Meerschweinchens
(§2) Am narkotisierten Meerschweinchen wurden 5 Minuten nach Gabe der Prüfsubstanz 10 µg/kg Acetylcholin sowohl intravenös als auch gleichzeitig intraarteriell injiziert. Dabei wurde die Herzfrequenz durch extrakorporale Ableitung des EKG, der Ausatemwiderstand nach Konzett-Rößler und die Kontraktion der freigelegten Harnblase direkt registriert. Für die Hemmung der Acetylcholinwirkung an den untersuchten Organen wurden Dosis-Wirkungskurven aufgenommen und daraus -log EDso-Werte bestimmt. Ergebnisse siehe Tabelle III.

[2] = system: Acetylcholinwirkung auf Bronchien; test: Inhibition of the acetylcholine effect on bronchi (expiratory resistance, Konzett-Rößler) in the anaesthetised guinea pig; format: in vivo, Meerschweinchen; settings: for ED50: Cavia porcellus, 5 min, anaesthetised guinea pig, 10 µg/kg Acetylcholin 5 min after test substance, expiratory resistance, read-out: -log ED50 Bronchien (converted)
Description: as §1, §2

[3] = system: durch McN-A-343 verursachte Blutdruckanstieg (M,); test: M1/M2 selectivity in the rat: inhibition of blood pressure rise caused by McN-A-343; format: in vivo, männliche THOM-Ratten; settings: for ED50: iv, 5 min, rat, i.v., 5 min after injection, dose reducing the blood pressure rise after 0,3 mg/kg McN-A-343 i.v. (M1) by 50 %, read-out: -log ED50 Blutdruck (converted)
Excerpt: (§3) 1. M1-/M2-Selektivität an der Ratte
(§4) Die Dosis der Substanzen, die entweder die vagale Bradykardie (M2) oder den Blutdruckanstieg (M,) um 50% verminderte, wurde graphisch ermittelt. Ergebnisse siehe Tabelle 11.

[4] = system: vagale Bradykardie (M2); test: M1/M2 selectivity in the rat: inhibition of bradycardia evoked by electrical vagus stimulation; format: in vivo, männliche THOM-Ratten; settings: iv; for ED50: 5 min
Excerpt: as §3, §4

[5] = system: Acetylcholinwirkung auf Herzfrequenz; test: Inhibition of the acetylcholine effect on heart rate in the anaesthetised guinea pig; format: in vivo, Meerschweinchen; settings: for ED50: Cavia porcellus, 5 min, anaesthetised guinea pig, 10 µg/kg Acetylcholin 5 min after test substance, heart rate (ECG)
Description: as §1, §2

[6] = Solubility in water (remark in the synthesis example); format: physicochemical
[7] = system: Speichelsekretion; test: Inhibition of pilocarpine-induced salivary secretion in the rat; format: in vivo, männliche THOM-Ratten; settings: iv; urethane-anaesthetised rat, i.v.; 2 mg/kg Pilocarpin s.c.; dose reducing saliva volume by 50 %; read-out: -log ED50 Salivationshemmung (converted)
Description: 2. Speichelsekretionshemmende Wirkung an der Ratte
Nach Lavy und Mulder (Arch. int. Pharmacodyn. 178, 437-445, (1969)) erhielten mit 1,2 g/kg Urethan narkotisierte männliche THOM-Ratten steigende Dosen der Substanz i.v.. Die Speichelsekretion wurde durch s.c. Gabe von 2 mg/kg Pilocarpin ausgelöst. Der Speichel wurde mit Fließpapier aufgesaugt, die von ihm eingenommene Fläche alle 5 Minuten planimetrisch bestimmt. Die Dosis der Substanz, die das Speichelvolumen um 50% verminderte, wurde graphisch ermittelt. Ergebnisse siehe Tabelle 11.

[8] = rat, i.v., 5 min after injection, dose reducing vagal bradycardia (M2) by 50 %, read-out: -log ED50 Herz (converted)

With `CN1C2CCC1CC(OC(=O)C(CO)c1ccccc1)C2` (racemic) [F, Atropin, reference compound] the “-log ED50 Blase” value ([1]; in vivo) was 7,03 Molkg^-1, the “-log ED50 Bronchien” value ([2]; in vivo) was 7,96 Molkg^-1 and the “-log ED50 Blutdruck” value ([3]; in vivo) was 7,34 Mkg^-1. For the same compound, the “-log ED50 Herz” value ([4]; in vivo) was 7,94 Mkg^-1 and the “-log ED50 Herz” value ([5]; in vivo) was 7,70 Molkg^-1.

With `CCN(CC)CC1COCCN1CCCC(=O)N1c2ccccc2C(=O)Nc2cccnc21` (stereo not drawn) [A, 11-[4-[3-[(Diethylamino)methyl]-4-morpholinyl]-1-oxobutyl]-5,11-dihydro-6H-pyrido[2,3-b][1,4]-benzodiazepin-6-on] the ED50 [1] was 1 µmol/kg, the “Löslichkeit in Wasser” value [6] was “leicht löslich in Wasser” and the ED50 [2] was 0.0708 µmol/kg. It also gave an ED50 [3] of 0.55 µmol/kg, an ED50 [4, 8] of 0.0513 µmol/kg and an ED50 [5] of 0.0282 µmol/kg. It also gave an ED50 [7] of 1.1 µmol/kg.

In the case of `CCN(CC)CC1CCCCN1CCCC(=O)N1c2cc(C)ccc2C(=O)Nc2cccnc21` (stereo not drawn) [B, 11-[4-[2-[(Diethylamino)methyl]-1-piperidinyl]-1-oxobutyl]-5,11-dihydro-9-methyl-6H-pyrido[2,3-b][1,4]benzodiazepin-6-on], the ED50 [1] is reported as 0.759 µmol/kg, the ED50 [2] is reported as 0.151 µmol/kg and the ED50 [3] is reported as 0.501 µmol/kg. It also gave an ED50 [4, 8] of 0.0617 µmol/kg, an ED50 [5] of 0.0708 µmol/kg and an ED50 [7] of 1.12 µmol/kg.

With `CN(C)CCC1CCCCN1CCCC(=O)N1c2ccccc2C(=O)Nc2cccnc21` (stereo not drawn) [Beispiel 4, 5,11-Dihydro-11-[4-[2-[2-(dimethylamino)ethyl]-1-piperidinyl]-1-oxobutyl]-6H-pyrido[2,3-b][1,4]benzodiazepin-6-on] the “Löslichkeit in Wasser” value [6] was “löslich in Wasser”.

For `CCN(CC)CC1CCCCN1CCCC(=O)N1c2ccc(Br)cc2C(=O)Nc2cccnc21` (stereo not drawn) [Beispiel 7, 8-Brom-11-[4-[2-[(diethylamirio)methyl]-1-piperidinyl]-1-oxobutyl]-5,11-dihydro-6H-pyrido[2,3-b][1,4]-benzodiazepin-6-on], the “Löslichkeit in Wasser” value [6] was “in Wasser schwer lösliches”.

With `O=C1Nc2cccnc2N(C(=O)CCCN2CCCCC2CN2CCCC2)c2ccccc21` (stereo not drawn) [C, 5, 11-Dihydro-11-[4-[2-[(1-pyrrolidinyl)methyl]-1-piperidinyl]-1-oxobutyl]-6H-pyrido[2,3-b][1,4]-benzodiazepin-6-on] the ED50 [1] was 0.316 µmol/kg, the ED50 [2] was 0.0513 µmol/kg and the ED50 [3] was 0.219 µmol/kg. For the same compound, the ED50 [4, 8] was 0.0468 µmol/kg, the ED50 [5] was 0.0275 µmol/kg and the ED50 [7] was 1.66 µmol/kg.

Work on `CCN(CC)CC1CCCCN1CC(=O)N1c2ccccc2C(=O)Nc2cccnc21` (stereo not drawn) [D, 11-[[2-[(Diethylamino)methyl]-1-piperidinyl]acetyl]-5,11-dihydro-6H-pyrido[2,3-b][1,4]-benzodiazepin-6-on, reference compound] yielded an ED50 [3] of 2.34 µmol/kg, an ED50 ([4]; Rattus norvegicus, read-out: -log ED50 Herz) of 0.38 µmol/kg and an ED50 [7] of 10 µmol/kg.

In the case of `CN1CCN(CC(=O)N2c3ccccc3C(=O)Nc3cccnc32)CC1` [E, 5,11-Dihydro-11-[(4-methyl-1-piperazinyl)acetyl]-6H-pyrido[2,3-b][1,4]benzodiazepin-6-on, reference compound], the ED50 [7] is reported as 0.603 µmol/kg.
